Source: ChEMBL document CHEMBL3421587, “Discovery of novel small-molecule antagonists for GluK2” (Bioorg Med Chem Lett, 2015)
Active and inactive are the calls of the source. No cut-off for these calls is given here.

What was measured:
Type in all cases: cell-based
[1] = target: Glutamate receptor ionotropic, kainate 2 (Homo sapiens) (UniProt Q13002); assay: Antagonist activity at GluK2 (unknown origin) transfected in HEK293 cells assessed as inhibition of L-glutamate-induced peak current responses at 1 mM compound added in background solution by electrophysiological analysis relative to control
[2] = target: Glutamate receptor ionotropic, kainate 2 (Homo sapiens) (UniProt Q13002); assay: Agonist activity at GluK2 (unknown origin) transfected in HEK293 cells assessed as current responses at 1 mM by electrophysiological analysis
[3] = target: Glutamate receptor ionotropic, kainate 2 (Homo sapiens) (UniProt Q13002); assay: Antagonist activity at GluK2 (unknown origin) transfected in HEK293 cells assessed as inhibition of L-glutamate-induced peak current response at 1 mM compound added in background and L-glutamate solution by electrophysiological analysis relative to control

Chain of Glutamate receptor ionotropic, kainate 2 (Homo sapiens) (Q13002 whole entry): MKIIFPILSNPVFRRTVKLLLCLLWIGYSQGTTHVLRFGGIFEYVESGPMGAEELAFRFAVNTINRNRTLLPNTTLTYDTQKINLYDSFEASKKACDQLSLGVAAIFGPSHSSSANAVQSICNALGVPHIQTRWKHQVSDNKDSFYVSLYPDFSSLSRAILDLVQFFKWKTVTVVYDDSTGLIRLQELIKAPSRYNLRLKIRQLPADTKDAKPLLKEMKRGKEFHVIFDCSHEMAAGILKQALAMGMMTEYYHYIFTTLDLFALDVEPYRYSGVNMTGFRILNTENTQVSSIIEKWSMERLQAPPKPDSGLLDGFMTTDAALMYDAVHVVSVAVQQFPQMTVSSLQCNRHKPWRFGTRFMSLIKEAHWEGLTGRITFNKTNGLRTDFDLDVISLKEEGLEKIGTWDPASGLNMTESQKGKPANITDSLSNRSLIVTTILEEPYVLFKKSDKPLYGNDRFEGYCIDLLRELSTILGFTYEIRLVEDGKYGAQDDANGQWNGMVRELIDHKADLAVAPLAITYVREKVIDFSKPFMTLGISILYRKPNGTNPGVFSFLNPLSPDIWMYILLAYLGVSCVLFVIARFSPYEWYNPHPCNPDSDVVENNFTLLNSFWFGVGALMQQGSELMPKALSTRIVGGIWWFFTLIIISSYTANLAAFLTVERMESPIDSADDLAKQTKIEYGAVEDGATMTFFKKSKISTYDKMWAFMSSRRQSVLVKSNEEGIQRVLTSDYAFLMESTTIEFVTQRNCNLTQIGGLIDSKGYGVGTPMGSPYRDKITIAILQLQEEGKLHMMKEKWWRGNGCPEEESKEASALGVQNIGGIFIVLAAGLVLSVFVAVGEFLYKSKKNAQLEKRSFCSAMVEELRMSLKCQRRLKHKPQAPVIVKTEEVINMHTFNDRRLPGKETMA

| Structure (SMILES) | inhibition [1] | Activity [2] | inhibition [3] [%] |
| --- | --- | --- | --- |
| CCC[C@@H](CC(=O)O)[C@H](N)C(=O)O | 95% | – | – |
| N[C@H](C(=O)O)[C@H](CC(=O)O)c1ccccc1 | inactive | – | – |
| C[C@@H](CC(=O)O)[C@H](N)C(=O)O | 38% | inactive | – |
| CC(C)C[C@@H](CC(=O)O)[C@H](N)C(=O)O | inactive | – | – |
| CC[C@@H](CC(=O)O)[C@H](N)C(=O)O | 46% | inactive | 53 |
